In patent publication US20100086931A1, “METHOD FOR ASSAYING ACTION OF ANTITUMOR AGENT USING DECREASE IN GENE EXPRESSION LEVEL AS INDEX” (Eisai R&D Management Co., Ltd., priority 2007, published 2010):

System: peripheral blood mononuclear cells (PBMC)
Assay: Microarray analysis (Human Genome U133 plus 2.0 array) of mRNA expression in PBMC treated with compound A
Type: cell-based
Settings: 100 nM, ratio to control
Source text: Since it is not easy to obtain a cancer tissue clinically, the measurement of the marker in hemocytes readily obtainable in peripheral blood would be more useful. Specifically blood was taken from a normal individual (volunteer) and peripheral blood mononuclear cells were purified and treated with compound A, followed by measurement of change in expression of the gene (mRNA) with the microarray (Human Genome […] plus 2.0 array: Affymetrix).
Ficoll-Paque PLUS solution (Amersham, 17-1440-02) was slowly added to the blood taken (with heparin added) from a healthy individual to form a layer underneath the blood (15 ml of Ficoll-Paque PLUS solution was added to 25 ml of blood). After the mixture was centrifuged at 1500 rpm for 30 min, the upper part containing platelets was removed and then a layer containing mononuclear cells was transferred to another tube. The cells were suspended in PBS and centrifuged at 1500 rpm for 5 min, followed by removal of the supernatant. After these steps were repeated twice, the cells were again suspended in RPMI1640 (containing 10% FBS). The number of the cells was then counted.
The cells were suspended in the medium to 5×10^6 cells/ml and plated 1 ml per well of a 24-well plate. Immediately, 111 μl of compound A (ten times more concentrated than the final concentrations) was added to the well (four wells per each concentration tested). The cells were then cultured in an incubator with 5% carbon dioxide gas at 37° C. Two or four hours later, the supernatant was collected and centrifuged at 1500 rpm for five minutes. TRI reagent (SIGMA) (1 ml) was added to each well of the plate from which the supernatant was removed to harvest the cells, which was added to the centrifuged pellet to dissolve. RNA was purified in accordance with the protocol of TRI reagent. RNA was further purified using RNeasy (QIAGEN). Absorbance at 260 nm was measured to quantify an amount of RNA.
A .cel file for each sample was obtained by using GeneChip Operating Software Ver.1.2 (Affymetrix). The RMA method was applied to ten of the .cel files obtained in the microarray experiment. Log signal intensity at a gene level was obtained by normalization of that at a probe level. By subtracting a control value from log signal intensity for each case, the log signal intensity was converted into a log signal ratio to the control. Genes were narrowed down in the basis of a log signal ratio, and a signal value. Specifically, among genes showing that the P value was 5% or less; the expression level in the untreated (control) is 100 or more by signal value; and the expression level when treated with 10 nM of compound A both for two and four hours decreased by 50% or more, genes of which expression level decreased to 25% or less upon the two-hour treatment were picked out. The software used is R2.2.1 (http://www.r-project.org/), affy package 1.8.1 (http://www.bioconductor.org).
Among genes showing, upon the treatment with compound A, that the P value was 5% or less; the expression level in the untreated (control) is 100 or more by signal value; and the expression level when treated with 10 nM of compound A both for two and four hours decreased by 50% or more, genes of which expression level decreased to 25% or less upon the two-hour treatment, and results thereof were shown in Table 2. For each gene evaluated, gene name (Gene Name), abbreviated name (Gene Symbol), accession number (Accession), alias name (Synonym), Probe set number in Human Genome U133 Plus 2.0 Array (Human Genome U133 Plus 2.0 Array Probeset ID), the expression level upon the two-hour treatment with E7107 (E7107 (2 h)), and the expression level upon the four-hour treatment with E7107 (E7107 (4 h)) were respectively shown in Table 2.

`CCC(O)C(C)C1OC1CC(C)(O)/C=C/C=C(\C)C1OC(=O)CC(O)CCC(C)(O)C(OC(=O)N2CCN(C3CCCCCC3)CC2)/C=C/C1C` (stereo not drawn) [E7107, (8E,12E,14E)-7-((4-Cycloheptylpiperazin-1-yl)carbonyl)oxy-3,6,16,21-tetrahydroxy-6,10,12,16,20-pentamethyl-18,19-epoxytricosa-8,12,14-trien-11-olide] was tested, and the “AHSA2 mRNA expression level (226665_at)” value (2 h) was 0.20, the “ATXN1 mRNA expression level (242230_at)” value (2 h) was 0.25 and the “C13orf31 mRNA expression level (228937_at)” value (2 h) was 0.04. For the same compound, the “C15orf48 mRNA expression level (223484_at)” value (2 h) was 0.02, the “CCRL2//LOC642312 mRNA expression level (211434_s_at)” value (2 h) was 0.22 and the “CLEC5A mRNA expression level (219890_at)” value (2 h) was 0.08. The “CSF2RA mRNA expression level (210340_s_at)” value (2 h) was 0.08, the “CTSL1 mRNA expression level (202087_s_at)” value (2 h) was 0.20 and the “DHRS9 mRNA expression level (223952_x_at)” value (2 h) was 0.18. For the same compound, the “DOK3 mRNA expression level (223553_s_at)” value (2 h) was 0.30, the “FPRL2 mRNA expression level (230422_at)” value (2 h) was 0.05 and the “GNA15 mRNA expression level (205349_at)” value (2 h) was 0.11. The “GPR84 mRNA expression level (223767_at)” value (2 h) was 0.19, the “GTF2H1 mRNA expression level (202451_at)” value (2 h) was 0.07 and the “HNRPA2B1 mRNA expression level (225107_at)” value (2 h) was 0.07. The “HPSE mRNA expression level (222881_at)” value (2 h) was 0.13, the “IQCG mRNA expression level (235347_at)” value (2 h) was 0.08 and the “LOC51315 mRNA expression level (233329_s_at)” value (2 h) was 0.11. The “MS4A7 mRNA expression level (224358_s_at)” value (2 h) was 0.22, the “NLRP12 mRNA expression level (1554952_s_at)” value (2 h) was 0.24 and the “NRIP3 mRNA expression level (219557_s_at)” value (2 h) was 0.11. The “NSMCE4A mRNA expression level (228506_at)” value (2 h) was 0.19, the “OLR1 mRNA expression level (210004_at)” value (2 h) was 0.01 and the “RAPH1 mRNA expression level (225188_at)” value (2 h) was 0.05. The “RBBP6 mRNA expression level (212781_at)” value (2 h) was 0.12, the “SLC25A19 mRNA expression level (223222_at)” value (2 h) was 0.17 and the “SLC43A2 mRNA expression level (228918_at)” value (2 h) was 0.17. The “TNFAIP6 mRNA expression level (206026_s_at)” value (2 h) was 0.07, the “TNS1 mRNA expression level (221748_s_at)” value (2 h) was 0.09 and the “TRAPPC4 mRNA expression level (217959_s_at)” value (2 h) was 0.08. For the same compound, the “Transcribed locus mRNA expression level (230098_at)” value (2 h) was 0.08, the “WSB1 mRNA expression level (201294_s_at)” value (2 h) was 0.29 and the “ZCCHC6 mRNA expression level (220933_s_at)” value (2 h) was 0.14. The “AHSA2 mRNA expression level (226665_at)” value (4 h) was 0.23, the “ATXN1 mRNA expression level (242230_at)” value (4 h) was 0.13 and the “C13orf31 mRNA expression level (228937_at)” value (4 h) was 0.06. For the same compound, the “C15orf48 mRNA expression level (223484_at)” value (4 h) was 0.01, the “CCRL2//LOC642312 mRNA expression level (211434_s_at)” value (4 h) was 0.29 and the “CLEC5A mRNA expression level (219890_at)” value (4 h) was 0.01. The “CSF2RA mRNA expression level (210340_s_at)” value (4 h) was 0.10, the “CTSL1 mRNA expression level (202087_s_at)” value (4 h) was 0.13 and the “DHRS9 mRNA expression level (223952_x_at)” value (4 h) was 0.12. The “DOK3 mRNA expression level (223553_s_at)” value (4 h) was 0.35, the “FPRL2 mRNA expression level (230422_at)” value (4 h) was 0.02 and the “GNA15 mRNA expression level (205349_at)” value (4 h) was 0.15. The “GPR84 mRNA expression level (223767_at)” value (4 h) was 0.38, the “GTF2H1 mRNA expression level (202451_at)” value (4 h) was 0.02 and the “HNRPA2B1 mRNA expression level (225107_at)” value (4 h) was 0.10. For the same compound, the “HPSE mRNA expression level (222881_at)” value (4 h) was 0.11, the “IQCG mRNA expression level (235347_at)” value (4 h) was 0.05 and the “LOC51315 mRNA expression level (233329_s_at)” value (4 h) was 0.06. The “MS4A7 mRNA expression level (224358_s_at)” value (4 h) was 0.03, the “NLRP12 mRNA expression level (1554952_s_at)” value (4 h) was 0.20 and the “NRIP3 mRNA expression level (219557_s_at)” value (4 h) was 0.24. The “NSMCE4A mRNA expression level (228506_at)” value (4 h) was 0.19, the “OLR1 mRNA expression level (210004_at)” value (4 h) was 0.00 and the “RAPH1 mRNA expression level (225188_at)” value (4 h) was 0.10. For the same compound, the “RBBP6 mRNA expression level (212781_at)” value (4 h) was 0.17, the “SLC25A19 mRNA expression level (223222_at)” value (4 h) was 0.18 and the “SLC43A2 mRNA expression level (228918_at)” value (4 h) was 0.08. For the same compound, the “TNFAIP6 mRNA expression level (206026_s_at)” value (4 h) was 0.02, the “TNS1 mRNA expression level (221748_s_at)” value (4 h) was 0.06 and the “TRAPPC4 mRNA expression level (217959_s_at)” value (4 h) was 0.04. For the same compound, the “Transcribed locus mRNA expression level (230098_at)” value (4 h) was 0.08, the “WSB1 mRNA expression level (201294_s_at)” value (4 h) was 0.25 and the “ZCCHC6 mRNA expression level (220933_s_at)” value (4 h) was 0.06.
